Measurements: US20160296658A1, “NOVEL ACTIVE INGREDIENT IN CICATRIZATION AND USE THEREOF” (LABORATOIRES URGO, priority 2007, published 2016)

Tested on: normal human dermal fibroblasts (NHDF) R9PF2
Experiment: NHDF proliferation by incorporation of tritiated thymidine
Assay type: cell-based
Conditions: dilution in culture medium at 0.011 mg/mL; 48 hours
Experimental: Type: pool of normal human dermal fibroblasts (NHDF) R9PF2
DMEM (Dulbecco's Modified Eagle Medium, Invitrogen 21969035)
Dressings having the size of the wells, prepared as described previously using the elastomeric masses of examples 1 to 5, and also dilutions of the Sepinov EMT 10 copolymer to 0.011 mg/mL and of potassium sucrose octasulfate to 0.00064 mg/mL, were tested.
Effects on Proliferation:
The fibroblasts were seeded into 12-well plates at low density (60% confluence), and then the cells were treated with the dilutions or pieces of dressings were applied to these plates and kept in place by means of a plug (called “test”). A control without dressing, without dilution but with plug was carried out (called “control”).
The cells were then incubated for 24 hours, 48 hours and 72 hours. For each incubation time, tritiated thymidine ([methyl-3H]-thymidine, Amersham TRK 686 2.5 μCi/mL final concentration) was added for the final 24 hours of incubation and then the DNA of the cells of the cell layers was extracted and purified and the radioactivity incorporated into the DNA was counted using a scintillation counter.
The results obtained are expressed as counts per minute (cpm), then as percentage relative to the control according to the following formula:
%control=(Cpmtest/cmpcontrol)×100 […]

O=S(=O)([O-])OC[C@H]1O[C@@](COS(=O)(=O)[O-])(O[C@H]2O[C@H](COS(=O)(=O)[O-])[C@@H](OS(=O)(=O)[O-])[C@H](OS(=O)(=O)[O-])[C@H]2OS(=O)(=O)[O-])[C@@H](OS(=O)(=O)[O-])[C@@H]1OS(=O)(=O)[O-].[K+].[K+].[K+].[K+].[K+].[K+].[K+].[K+] [Potassium sucrose octasulfate, potassium sucrose octasulfate]
NHDF proliferation, % control: 106 % control
